Measured values as given in ChEMBL document CHEMBL4622963, “Optimization of Nicotinamides as Potent and Selective IRAK4 Inhibitors with Efficacy in a Murine Model of Psoriasis” (ACS Med Chem Lett, 2020).
pIC50: −log10 of the molar value.

Experiments:
[1] = target: Mast/stem cell growth factor receptor Kit (Homo sapiens, UniProt P10721, V559D); experiment: Inhibition of recombinant human partial length cKit Val559Asp mutant expressed in bacterial expression system
[2] = target: T1, Mitogen-activated protein kinase kinase kinase 7 (Homo sapiens, UniProt O43318); experiment: Inhibition of human wild type partial length TAK1 (1 to 303 residues) expressed in mammalian expression system
T1 sequence (O43318 whole entry): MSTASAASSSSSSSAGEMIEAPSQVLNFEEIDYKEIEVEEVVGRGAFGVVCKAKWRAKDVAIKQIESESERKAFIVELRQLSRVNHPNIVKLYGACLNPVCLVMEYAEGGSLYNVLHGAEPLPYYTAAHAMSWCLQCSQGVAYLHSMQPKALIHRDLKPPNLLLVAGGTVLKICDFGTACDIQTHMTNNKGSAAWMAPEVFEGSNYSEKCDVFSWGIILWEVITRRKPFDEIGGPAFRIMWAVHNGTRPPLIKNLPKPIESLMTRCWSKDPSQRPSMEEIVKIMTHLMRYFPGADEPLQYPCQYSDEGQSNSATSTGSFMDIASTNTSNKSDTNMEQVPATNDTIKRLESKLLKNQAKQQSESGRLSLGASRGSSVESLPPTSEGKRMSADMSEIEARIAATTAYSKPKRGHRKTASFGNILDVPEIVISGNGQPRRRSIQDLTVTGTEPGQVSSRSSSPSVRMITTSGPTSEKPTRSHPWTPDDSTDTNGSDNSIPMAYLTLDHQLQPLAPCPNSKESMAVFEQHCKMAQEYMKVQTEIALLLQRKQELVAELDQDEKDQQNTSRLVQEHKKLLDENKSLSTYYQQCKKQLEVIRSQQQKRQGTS

[3] = target: T2, Mast/stem cell growth factor receptor Kit (Homo sapiens, UniProt P10721); experiment: Inhibition of cKit (unknown origin) by functional based assay
T2 sequence (P10721 whole entry): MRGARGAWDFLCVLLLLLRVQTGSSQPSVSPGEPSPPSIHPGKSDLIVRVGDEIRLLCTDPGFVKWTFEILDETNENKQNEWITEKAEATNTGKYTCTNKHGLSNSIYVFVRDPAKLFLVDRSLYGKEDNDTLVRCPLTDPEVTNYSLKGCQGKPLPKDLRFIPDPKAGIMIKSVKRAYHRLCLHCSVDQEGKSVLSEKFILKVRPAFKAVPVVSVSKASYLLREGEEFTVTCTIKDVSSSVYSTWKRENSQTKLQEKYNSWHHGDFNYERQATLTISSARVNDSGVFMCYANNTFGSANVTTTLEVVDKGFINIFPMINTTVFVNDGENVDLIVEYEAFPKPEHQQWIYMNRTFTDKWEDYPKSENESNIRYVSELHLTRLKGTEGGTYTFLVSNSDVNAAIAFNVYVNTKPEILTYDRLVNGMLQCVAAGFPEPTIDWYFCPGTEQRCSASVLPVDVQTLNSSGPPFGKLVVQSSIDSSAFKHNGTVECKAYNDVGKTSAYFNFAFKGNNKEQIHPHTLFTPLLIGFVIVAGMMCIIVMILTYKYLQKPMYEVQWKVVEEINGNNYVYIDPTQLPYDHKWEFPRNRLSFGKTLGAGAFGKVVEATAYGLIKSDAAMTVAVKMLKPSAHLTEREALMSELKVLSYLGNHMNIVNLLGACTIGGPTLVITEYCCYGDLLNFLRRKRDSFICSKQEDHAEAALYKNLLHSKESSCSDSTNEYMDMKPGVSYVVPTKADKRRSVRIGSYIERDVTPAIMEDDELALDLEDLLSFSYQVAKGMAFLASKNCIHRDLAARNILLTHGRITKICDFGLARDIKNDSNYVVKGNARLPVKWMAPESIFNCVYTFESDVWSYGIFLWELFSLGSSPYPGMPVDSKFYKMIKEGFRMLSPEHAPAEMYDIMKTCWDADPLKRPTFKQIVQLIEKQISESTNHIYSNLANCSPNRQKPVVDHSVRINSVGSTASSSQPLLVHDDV

Homo sapiens [4] = organism: Homo sapiens; experiment: Selectivity index, ratio of IC50 for recombinant N-terminal GST-tagged human cKit (544 to end residues) expressed in baculovirus infected Sf21 cells to IC50 for IRAK4 (unknown origin)
[5] = AUC in mouse at 2 mg/kg, iv administered as infusion measured up to 24 hrs by LC-MS analysis; assay type: ADME, organism-based; parameters: time < 24 hr, dose 2 mg/kg, route intravenous; conditions: in vivo
[6] = Permeability across apical to basolateral side in human Caco2 cells; conditions: Caco-2
[7] = Stability in human liver microsomes assessed as parent compound remaining; assay type: ADME, Microsome
[8] = Stability in mouse liver microsomes assessed as parent compound remaining measured after 10 mins; assay type: ADME, Microsome; conditions: read-out: Stability
[9] = target: T3, Interleukin-1 receptor-associated kinase 4 (Homo sapiens, UniProt Q9NWZ3); experiment: Inhibition of IRAK4 (unknown origin) using FL-IPTSPITTTYFFFKKK peptide and ATP as substrate incubated for 60 mins by fluorescence based caliper assay
T3 sequence (Q9NWZ3 whole entry): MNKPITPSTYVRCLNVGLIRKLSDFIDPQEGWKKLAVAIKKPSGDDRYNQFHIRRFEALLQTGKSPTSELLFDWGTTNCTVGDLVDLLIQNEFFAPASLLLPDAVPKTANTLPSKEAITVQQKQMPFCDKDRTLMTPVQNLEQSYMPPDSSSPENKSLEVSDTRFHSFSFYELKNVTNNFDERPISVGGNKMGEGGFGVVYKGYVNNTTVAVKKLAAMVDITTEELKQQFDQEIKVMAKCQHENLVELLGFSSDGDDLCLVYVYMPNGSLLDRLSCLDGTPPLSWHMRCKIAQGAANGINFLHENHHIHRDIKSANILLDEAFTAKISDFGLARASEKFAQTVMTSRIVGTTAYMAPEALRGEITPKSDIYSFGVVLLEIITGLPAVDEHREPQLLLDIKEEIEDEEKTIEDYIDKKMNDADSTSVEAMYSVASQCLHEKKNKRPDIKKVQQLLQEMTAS

Homo sapiens [10] = organism: Homo sapiens; experiment: Selectivity index, ratio of IC50 for N-terminal His6-tagged human full length recombinant LCK expressed in baculovirus infected Sf21 cells to IC50 for IRAK4 (unknown origin)
[11] = Half life in mouse at 2 mg/kg, iv administered as infusion or 2 mg/kg, po via gavage measured up to 24 hrs by LC-MS analysis; assay type: ADME, organism-based; conditions: in vivo
[12] = Oral bioavailability in mouse at 2 mg/kg administered via gavage measured up to 24 hrs by LC-MS analysis; assay type: ADME, organism-based; conditions: in vivo
[13] = AUC in mouse at 2 mg/kg, po via gavage measured up to 24 hrs by LC-MS analysis; assay type: ADME, organism-based; parameters: time < 24 hr, dose 2 mg/kg, route oral; conditions: in vivo
[14] = target: TRAF2 and NCK-interacting protein kinase (Homo sapiens, UniProt Q9UKE5); experiment: Inhibition of human wild type partial length TNIK (D4-K311 residues) expressed in bacterial expression system
TRAF2 and NCK-interacting protein kinase, sequence (Q9UKE5 whole entry, the tested form may be a part): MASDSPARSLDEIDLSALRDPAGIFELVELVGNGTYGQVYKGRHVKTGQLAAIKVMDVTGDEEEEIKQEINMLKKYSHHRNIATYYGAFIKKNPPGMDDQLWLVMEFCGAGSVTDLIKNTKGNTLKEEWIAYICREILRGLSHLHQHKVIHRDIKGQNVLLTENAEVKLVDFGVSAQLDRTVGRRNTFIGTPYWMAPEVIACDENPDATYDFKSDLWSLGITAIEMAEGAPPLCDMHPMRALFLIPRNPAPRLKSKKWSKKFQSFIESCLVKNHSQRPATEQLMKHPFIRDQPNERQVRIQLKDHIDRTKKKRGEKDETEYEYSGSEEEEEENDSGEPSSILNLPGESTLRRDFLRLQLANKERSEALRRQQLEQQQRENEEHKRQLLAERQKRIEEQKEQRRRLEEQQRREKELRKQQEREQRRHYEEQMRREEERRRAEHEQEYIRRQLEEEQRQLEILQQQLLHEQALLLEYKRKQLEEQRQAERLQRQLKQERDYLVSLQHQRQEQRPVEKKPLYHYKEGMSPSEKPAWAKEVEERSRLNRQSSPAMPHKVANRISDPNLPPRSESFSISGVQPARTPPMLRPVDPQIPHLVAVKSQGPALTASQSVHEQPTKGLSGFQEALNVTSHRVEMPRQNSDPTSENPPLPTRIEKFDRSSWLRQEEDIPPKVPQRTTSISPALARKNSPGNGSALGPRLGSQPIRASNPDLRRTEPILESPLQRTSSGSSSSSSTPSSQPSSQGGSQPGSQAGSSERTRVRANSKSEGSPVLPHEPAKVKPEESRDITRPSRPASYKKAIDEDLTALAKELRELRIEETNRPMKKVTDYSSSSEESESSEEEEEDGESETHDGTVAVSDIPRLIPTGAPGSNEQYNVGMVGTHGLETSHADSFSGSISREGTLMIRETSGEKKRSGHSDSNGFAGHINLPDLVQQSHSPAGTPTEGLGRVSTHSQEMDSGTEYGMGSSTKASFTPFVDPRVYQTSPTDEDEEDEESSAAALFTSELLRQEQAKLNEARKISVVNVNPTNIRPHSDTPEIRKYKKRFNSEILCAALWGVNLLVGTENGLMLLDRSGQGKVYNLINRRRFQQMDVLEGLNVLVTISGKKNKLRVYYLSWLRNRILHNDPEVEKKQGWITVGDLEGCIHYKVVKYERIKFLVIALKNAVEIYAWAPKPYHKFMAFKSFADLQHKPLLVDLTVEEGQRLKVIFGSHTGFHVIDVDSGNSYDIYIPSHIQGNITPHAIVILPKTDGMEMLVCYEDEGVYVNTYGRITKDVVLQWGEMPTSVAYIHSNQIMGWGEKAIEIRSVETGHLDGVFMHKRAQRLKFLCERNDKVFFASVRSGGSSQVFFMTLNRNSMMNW

[15] = target: T3, Interleukin-1 receptor-associated kinase 4; experiment: Inhibition of IRAK4 in human whole blood assessed as inhibition of LTA-induced IL-6 production preincubated for 30 mins followed by LTA-stimulation and measured after 5 hrs by ELISA; assay type: tissue-based
[16] = Volume of distribution at steady state in mouse at 2 mg/kg, iv administered as infusion or 2 mg/kg, po via gavage measured up to 24 hrs by LC-MS analysis; assay type: ADME, organism-based; conditions: in vivo, read-out: Vdss
[17] = target: T2, Mast/stem cell growth factor receptor Kit; experiment: Inhibition of recombinant N-terminal GST-tagged human cKit (544 to end residues) expressed in baculovirus infected Sf21 cells
[18] = target: T3, Interleukin-1 receptor-associated kinase 4; experiment: Inhibition of IRAK4 in human PBMC assessed as inhibition of LTA-induced IL-6 production preincubated for 30 mins followed by LTA-stimulation and measured after 5 hrs by ELISA; assay type: cell-based
[19] = target: Mast/stem cell growth factor receptor Kit (Homo sapiens, UniProt P10721, V559D/T670I); experiment: Inhibition of recombinant human partial length cKit Val559Asp/Thr670Ile double mutant expressed in bacterial expression system
Mast/stem cell growth factor receptor Kit (Homo sapiens, UniProt P10721, V559D/T670I), sequence (P10721 26-976 V559D/T670I limits assumed): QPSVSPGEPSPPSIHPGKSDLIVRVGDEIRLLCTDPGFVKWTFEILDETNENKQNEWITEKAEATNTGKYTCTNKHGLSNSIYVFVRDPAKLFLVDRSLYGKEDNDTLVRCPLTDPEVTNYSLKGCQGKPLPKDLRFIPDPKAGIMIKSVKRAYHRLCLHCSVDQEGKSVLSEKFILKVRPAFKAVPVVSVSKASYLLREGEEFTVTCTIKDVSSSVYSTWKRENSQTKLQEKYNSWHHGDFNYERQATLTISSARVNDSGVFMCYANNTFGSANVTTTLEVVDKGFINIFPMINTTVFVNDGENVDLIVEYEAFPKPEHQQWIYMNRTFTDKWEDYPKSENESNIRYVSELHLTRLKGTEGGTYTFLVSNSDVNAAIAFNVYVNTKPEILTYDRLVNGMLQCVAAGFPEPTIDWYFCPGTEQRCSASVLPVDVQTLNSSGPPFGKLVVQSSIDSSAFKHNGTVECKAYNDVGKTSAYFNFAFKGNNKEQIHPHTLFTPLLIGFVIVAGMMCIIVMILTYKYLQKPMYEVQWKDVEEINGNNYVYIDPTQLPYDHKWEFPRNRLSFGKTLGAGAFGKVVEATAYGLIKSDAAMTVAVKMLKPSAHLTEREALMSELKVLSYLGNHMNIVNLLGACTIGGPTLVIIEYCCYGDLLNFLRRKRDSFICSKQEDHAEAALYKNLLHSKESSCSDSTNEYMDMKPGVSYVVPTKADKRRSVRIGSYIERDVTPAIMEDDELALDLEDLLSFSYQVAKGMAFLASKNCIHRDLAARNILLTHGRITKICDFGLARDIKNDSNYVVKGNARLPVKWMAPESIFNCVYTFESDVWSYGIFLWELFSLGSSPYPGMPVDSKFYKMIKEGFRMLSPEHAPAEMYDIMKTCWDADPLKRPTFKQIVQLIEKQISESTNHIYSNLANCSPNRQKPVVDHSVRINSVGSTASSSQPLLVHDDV

[20] = Clearance in mouse at 2 mg/kg, iv administered as infusion or 2 mg/kg, po via gavage measured up to 24 hrs by LC-MS analysis; assay type: ADME, organism-based; conditions: in vivo

Mast/stem cell growth factor receptor Kit (Homo sapiens, UniProt P10721, V559D), sequence (P10721 26-976 V559D limits assumed): as the sequence (P10721 26-976 V559D/T670I limits assumed) above, with I645T counted along it

## CC(C)Nc1cc(Nc2ccn3nccc3n2)ncc1C(=O)NC[C@@H](F)C(C)(C)O
[1]
  inhibition (INH): Active
[2]
  pIC50: 6.72
[3]
  pIC50: 6.77
Homo sapiens [4]
  Ratio IC50: 8
[5]
  AUC at 24 h: 2.4 µM·h
[6]
  Papp A→B: 6.9 ×10⁻⁶ cm/s
[7]
  Stability: 100%
[8]
  remaining at 10 min: 89%
[9]
  pIC50: 8.49
Homo sapiens [10]
  Ratio IC50: 130
[11]
  half-life: 2 h
[12]
  bioavailability: 36%
[13]
  AUC at 24 h: 0.9 µM·h
[14]
  pIC50: 8.10
[15]
  pIC50: 6.47
[16]
  Vd: 3 L/kg
[17]
  pIC50: 7.62
[18]
  pIC50: 7.00
[19]
  inhibition (INH): Not Active
[20]
  clearance: 33 mL/min/kg
